Experiments:
human PDE1b enzyme = human PDE1b enzyme (Homo sapiens (Human), UniProt Q01064); experiment: PDE1b inhibitory assay (IMAP TR-FRET); details: for PDE1b (pEC50): negative log of half-maximal molar inhibitory concentration, 200 nM FAM-cAMP, reported as ranges
NS1 cells = experiment: Neurite outgrowth (NOG) assay; format: cell-based
Procedure: Neuroscreen 1 (NS1) Cells (Cellomics Inc.) were cultured on collagen type I coated 75 cm2 plastic flasks (Biocoat, Becton Dickinson) in a humidified incubator at 37° C. in 5% CO2. Cells were cultured in RPMI complete cell culture medium (Cambrex) supplemented with 10% heat-inactivated horse serum (Invitrogen), 5% heat-inactivated fetal bovine serum (Cellgro), and 2 mM L-glutamine (Cambrex). For expansion, the cells were trypsinized and split at 80% confluence. Cell culture media was changed every 2 to 3 days.
NS1 cells were harvested and counted using a Coulter counter (Becton Dickinson Coulter Z1). Cells were seeded in 96-well collagen I coated plates at a density of 2000 cells per well in volume of […]. RPMI media was supplemented with 200 ng/ml nerve growth factor (NGF, Sigma). NS1 cells were incubated for 72 hours to allow differentiation to a neuronal phenotype. […]
Antibody-stained 96-well plates were stored at 4° C. in the dark until scanning. […] The neurite outgrowth assay is based on two channels to scanning: (1) Channel 1, which detects the Hoechst Dye and is used by the software to identify cells and for automated focusing; and (2) Channel 2, which detects the FITC fluorescence of the secondary antibody and is used by the software to calculate all data generated in reference to neurites. […]

SMILES: COc1ccc(Cn2c(=O)n3ncnc3c3c4c(sc32)CN(CC(C)C)CC4(F)F)cc1 [Example 218, 11,11-Difluoro-9-isobutyl-6-(4-methoxybenzyl)-8,9,10,11-tetrahydropyrido[4′,3′:4,5]thieno[3,2-e][1,2,4]triazolo[1,5-c]pyrimidin-5 (6H)-one]
- EC50 (human PDE1b enzyme): 100 to 1000 nM

SMILES: COc1ccc(Cn2c(=O)n3ncnc3c3c4c(sc32)CNCC4(F)F)cc1 [Example 219, 11,11-Difluoro-6-(4-methoxybenzyl)-8,9,10,11-tetrahydropyrido[4′,3′:4,5]thieno[3,2-e][1,2,4]triazolo[1,5-c]pyrimidin-5 (6H)-one]
- PDE1b (pEC50) (human PDE1b enzyme): >7

SMILES: COc1ccc(Cn2c(=O)n3ncnc3c3c4c(sc32)NCCC4)cc1 [Example 220, 6-(4-Methoxybenzyl)-8,9,10,11-tetrahydropyrido[3′,2′:4,5]thieno[3,2-e][1,2,4]triazolo[1,5-c]pyrimidin-5(6H)-one]
- PDE1b (pEC50) (human PDE1b enzyme): >7

SMILES: COc1ccc(Cn2c(=O)n3ncnc3c3c4c(sc32)NCCC4)cc1 [Example 221, 6-(4-Methoxybenzyl)-8,9,10,11-tetrahydropyrido[3′,2′:4,5]thieno[3,2-e][1,2,4]triazolo[1,5-c]pyrimidin-5(6H)-one]
- EC50 (human PDE1b enzyme): 100 to 1000 nM

SMILES: COc1ccc(C2CNC(=O)C2)cc1OC1CCCC1 (stereo not drawn) [Rolipram]
- neurite length and branching / neurite outgrowth (NS1 cells; alone, without forskolin): not affected
- neurite length and branching / neurite outgrowth (NS1 cells; in combination with forskolin): enhanced in dose-dependent manner
